# Reference: patent US12673022B2, “Drug delivery system using solution” (Kyoto University, priority 2018, dated 2026)
# Experiments:
# [1] = tested on: EGFP reporter cells (C2C12 cells); assay: EGFP-SSA assay: uptake of Cas9 protein/gRNA complex into cells (EGFP positive rate); type: cell-based, mouse; conditions: for Compound activity: EGFP positive rate (%): reaction solution 1 (550 mM sodium chloride, 1 mM HEPES, Cas9 protein/gRNA), 30 minutes; for EGFP positive rate: Example 4, compound 250 mM, FIG. 8
# [2] = tested on: EGFP reporter cells (C2C12 cells); assay: Number of HOECHST cells detected (cell viability) in the EGFP-SSA assay; conditions: Example 1, formula (2)
# Description: To each of the solutions, a complex of gRNA and Cas9 protein was further dissolved. Mouse myoblasts (C2C12 cells) were contacted with each of the solutions in vitro, and target gene cleavage activity and cell viability were evaluated.
# [3] = tested on: EGFP reporter cells (C2C12 cells); assay: EGFP-SSA assay: uptake of Cas9 protein/gRNA complex into cells (EGFP positive rate); type: cell-based, mouse; conditions: for Compound activity: EGFP positive rate (%): Example 1, compound 250.0 mM, reaction solution 1 (550 mM sodium chloride, 1 mM HEPES, Cas9 protein/gRNA), 30 minutes; for EGFP positive rate (activity) with different (B) salts: Example 3, reaction solutions 3-1 to 3-6: 250 mM GABA, 50 mM HEPES, salt varied, FIG. 7
# Description: EGFP-SSA assay: an abbreviation of EGFP-single strand annealing assay. The reporter cassette shown in FIG. 1 is inserted in EGFP reporter cells. In the middle of the EGFP sequence of the cassette, MmDMD-Ex51 sequence is inserted. Since the presence of MmDMD-Ex51 sequence, by which EGFP ORF is divided, EGFP protein is not usually translated. However, when target sequence of MmDMD-Ex51 is cleaved by Cas9 protein/gRNA complex, the upstream region (EG part) and the downstream region (FP part) of EGFP ORF are annealed via a homology area into a single strand, with the result that a full-length EGFP ORF emerges to produce EGFP protein. Based on this principle, the ratio of the number of cells producing EGFP is checked by the EGFP-SSA assay. In this manner, the amount of Cas9 protein/gRNA complex delivered to cells can be predicted.
# (§1) Cas9 protein (0.4 μg), tracrRNA (34.18 ng), MmDmd Ex51 crRNA (29.48 ng), a 1 M HEPES buffer (0.05 μL) and a 5 M aqueous sodium chloride solution (5.5 μL) were mixed and diluted with UltraPure DNase/RNase-Free Distilled Water up to a liquid volume of 37.5 μL so as to obtain final concentrations: 8 ng/μL Cas9 protein, 0.68 ng/μL tracrRNA, 0.59 ng/μL MmDmd Ex51 crRNA, 1 mM HEPES, 550 mM sodium chloride, and 250 mM compound. To this solution, a 1000 mM compound solution (12.5 μL) was added and the solution mixture was incubated at normal temperature for 15 minutes.
# as §1, with “buffer (2.5” for “buffer (0.05”, “solution (4.85” for “solution (5.5”, “crRNA, 50” for “crRNA, 1”, “HEPES, 485” for “HEPES, 550”, “minutes. Note that, in the cases where the final concentrations of the compound are 0.69 mM, 25 mM, 100 mM, 125 mM, 160 mM, 200 mM and 500 mM, the compound stock solution was diluted with UltraPure DNase/RNase-Free Distilled Water up to concentrations of 2.76 mM, 100 mM, 400 mM, 500 mM, 640 mM, 800 mM and 2000 mM, respectively, and then, added. […]” for “minutes.”
# Cas9 protein (2.0 μg), tracrRNA (170.9 ng), MmDmd Ex51 crRNA (147.4 ng), a 1 M HEPES buffer (12.5 μL), a 5 M aqueous sodium chloride solution (18.35 μL) and a 1 M aqueous GABA solution (62.5 μL) were mixed, diluted with UltraPure DNase/RNase-Free Distilled Water up to a liquid volume of 250 μL so as to obtain final concentrations: 8 ng/μL Cas9 protein, 0.68 ng/μL tracrRNA, 0.59 ng/μL MmDmd Ex51 crRNA, 50 mM HEPES, 250 mM GABA and 367 mM sodium chloride, and incubated at normal temperature for 15 minutes. Note that the addition amount of the 5 M aqueous sodium chloride solution was changed to 24.25 μL in the case of 485 mM sodium chloride and the addition amount was changed to 27.5 μL in the case of 550 mM sodium chloride, respectively.
# [4] = compound 500.0 mM vs 250 mM GABA positive control on the same plate
# [5] = compound 250.0 mM vs 250 mM GABA positive control on the same plate
# [6] = compound 200.0 mM vs 250 mM GABA positive control on the same plate
# [7] = compound 125.0 mM vs 250 mM GABA positive control on the same plate
structure (smiles),measurement,setting,value
"CC(O)CCO (stereo not shown) [1,3-Butylene glycol]",Compound activity: EGFP positive rate (%),"[1]; Example 1, compound 0.69 mM",3.62%
same,Relative ratio to GABA: Number of HOECHST cells,[2]; compound 0.69 mM vs 250 mM GABA positive control on the same plate,1.03
"CNC(=O)NC [1,3-Dimethylurea]",Compound activity: EGFP positive rate (%),"[1]; Example 1, compound 500.0 mM",2.64%
same,Relative ratio to GABA: Number of HOECHST cells,[2]; [4],0.68
Cn1cnc(C[C@H](N)C(=O)O)c1 [1-Methyl-L-histidine],Compound activity: EGFP positive rate (%),[3],3.54%
same,Relative ratio to GABA: Number of HOECHST cells,[2]; [5],0.68
O=C(O)CCC(O)C(=O)O (stereo not shown) [2-Hydroxyglutaric acid],Compound activity: EGFP positive rate (%),[3],1.89%
same,Relative ratio to GABA: Number of HOECHST cells,[2]; [5],0.83
O=c1ccn([C@H]2C[C@H](O)[C@@H](CO)O2)c(=O)[nH]1 [2′-Deoxyuridine],Compound activity: EGFP positive rate (%),"[1]; Example 1, compound 100.0 mM",1.10%
same,Relative ratio to GABA: Number of HOECHST cells,[2]; compound 100.0 mM vs 250 mM GABA positive control on the same plate,0.88
O=C(O)[C@@H]1CC(O)CN1 (stereo partly shown) [4-Hydroxyproline],Compound activity: EGFP positive rate (%),"[1]; Example 1, compound 500.0 mM",35.82%
same,Relative ratio to GABA: Number of HOECHST cells,[2]; [4],0.62
O=C(O)[C@H](O)[C@@H](O)[C@H](O)[C@H](O)COP(=O)(O)O [6-Phospho-D-gluconic acid],Compound activity: EGFP positive rate (%),[3],2.61%
same,Relative ratio to GABA: Number of HOECHST cells,[2]; [5],1.31
CC(C)(CO)[C@@H](O)C(=O)NCCC(=O)O [Calcium pantothenate],Compound activity: EGFP positive rate (%),"[1]; Example 1, compound 160.0 mM",0.25%
same,Relative ratio to GABA: Number of HOECHST cells,[2]; compound 160.0 mM vs 250 mM GABA positive control on the same plate,1.50
CN1CC(=O)NC1=N [Creatinine],Relative ratio to GABA: EGFP positive rate (%),"[1]; Example 1, compound 200.0 mM vs 250 mM GABA positive control on the same plate, formula (1)",2.50
same,Compound activity: EGFP positive rate (%),"[1]; Example 1, compound 200.0 mM",2.27%
same,Relative ratio to GABA: Number of HOECHST cells,[2]; [6],0.84
Nc1ccn([C@@H]2O[C@H](CO)[C@@H](O)[C@H]2O)c(=O)n1 [Cytidine],Compound activity: EGFP positive rate (%),"[1]; Example 1, compound 125.0 mM",2.24%
same,Relative ratio to GABA: Number of HOECHST cells,[2]; [7],1.58
Nc1cc[nH]c(=O)n1 [Cytosine],Compound activity: EGFP positive rate (%),"[1]; Example 1, compound 25.0 mM",0.61%
same,Relative ratio to GABA: Number of HOECHST cells,[2]; compound 25.0 mM vs 250 mM GABA positive control on the same plate,0.77
OC[C@H]1O[C@@H](O[C@H]2[C@H](O)[C@@H](O)[C@H](O)O[C@@H]2CO)[C@H](O)[C@@H](O)[C@@H]1O [D(+)-cellobiose],Compound activity: EGFP positive rate (%),"[1]; Example 1, compound 200.0 mM",1.18%
same,Relative ratio to GABA: Number of HOECHST cells,[2]; [6],1.00
"NCCCC(=O)O [GABA, γ-aminobutyric acid, reference compound]",EGFP positive rate,"[3]; Example 4, sodium chloride 550 mM, compound 250 mM, FIG. 8",1.4%
same,Compound activity: EGFP positive rate (%),"[1]; Example 1, compound 200.0 mM",1.39%
same,EGFP positive rate,[1]; sodium chloride 150 mM,less than 1%
same,EGFP positive rate,[1]; sodium chloride 350 mM,less than 1%
same,Relative ratio to GABA: Number of HOECHST cells,[2]; [6],1.00
NCCC(=O)N[C@@H](Cc1cnc[nH]1)C(=O)O [L-Carnosine],Compound activity: EGFP positive rate (%),"[1]; Example 1, compound 125.0 mM",1.76%
same,Relative ratio to GABA: Number of HOECHST cells,[2]; [7],0.98
OCCN1C[C@H](O)[C@@H](O)[C@H](O)[C@H]1CO [Miglitol],Compound activity: EGFP positive rate (%),"[1]; Example 1, compound 125.0 mM",1.55%
same,Relative ratio to GABA: Number of HOECHST cells,[2]; [7],0.83
CC(C)C(=O)C(=O)O [Sodium 3-methyl-2-oxobutate],Compound activity: EGFP positive rate (%),"[1]; Example 1, compound 200.0 mM",1.71%
same,Relative ratio to GABA: Number of HOECHST cells,[2]; [6],0.53
[Cl-].[Cl-].[Mg+2] [magnesium chloride],EGFP positive rate (activity) with different (B) salts,[3],almost the same activity
[Cl-].[Na+] [sodium chloride],EGFP positive rate (activity) with different (B) salts,[3],almost the same activity
O=P(O)(O)O[C@H]1O[C@H](CO)[C@@H](O)[C@H](O)[C@H]1O [α-D-Glucose-1-phosphate],Compound activity: EGFP positive rate (%),[3],2.52%
same,Relative ratio to GABA: Number of HOECHST cells,[2]; [5],1.29
